{"source": "patent US9133182B2", "about": "“Selective androgen receptor modulators” (Radius Health, Inc., priority 2010, dated 2015)", "data": [{"target": "androgen receptor (Rattus norvegicus (Rat), UniProt P15207)", "sequence (P15207 651-902)": "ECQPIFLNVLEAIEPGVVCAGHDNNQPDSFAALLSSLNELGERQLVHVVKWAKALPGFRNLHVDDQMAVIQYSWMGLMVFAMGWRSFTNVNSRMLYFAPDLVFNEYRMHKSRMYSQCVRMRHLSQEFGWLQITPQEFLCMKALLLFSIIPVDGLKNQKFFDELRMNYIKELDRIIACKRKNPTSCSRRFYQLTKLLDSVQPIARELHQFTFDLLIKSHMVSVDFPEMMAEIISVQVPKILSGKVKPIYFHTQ", "assay": "androgen receptor binding assay (fluorescence polarization, Invitrogen)", "settings": "AR-Fluormone complex, 4 h at room temperature; Table 1", "protocol": "(§1) The assay was performed as specified by the manufacturer (Invitrogen, Madison, Wis.). Briefly, 1 μl of 10 mM compound was added to 500 μl of AR screening buffer in a 1.5 ml eppendorf tube to make a 2×10^−5M stock. 10-fold serial dilutions of the test compounds were prepared ranging in concentration from 10^−5M to 10^−12M. Each dilution was added in triplicate to a black 384-microtiter plate. The test compounds will be diluted 2-fold in the final reaction. 2×AR-Fluormone™ complex was prepared with 2 nM Flourmone AL Green™ and 30 nM AR. 25 μl of 2×complex was aliquoted to each reaction well, such that the final reaction volume was 50 μl per well. Plate was sealed with a foil cover and incubated in the dark at room temperature for 4 h. Polarization values for each well were measured. The polarization values were plotted against the concentration of the test compound. […] As a control, a competition curve for R1881 (methyltrienolone) was performed for each assay.", "units": {"IC50": "nM"}, "values": [{"smiles": "Cc1c(N2C(=O)O[C@@H](C)[C@@H]2[C@@H](O)C(F)(F)F)ccc(C#N)c1C(F)(F)F", "note": "[Example 24, 3-methyl-4-((4S,5S)-5-methyl-2-oxo-4-((R)-2,2,2-trifluoro-1-hydroxyethyl)oxazolidin-3-yl)-2-(trifluoromethyl)benzonitrile]", "IC50": "> 1000"}, {"smiles": "Cc1c(N2C(=O)O[C@@H](C)[C@@H]2[C@H](O)C(F)(F)F)ccc(C#N)c1Cl", "note": "[Example 17, 2-chloro-3-methyl-4-((4S,5S)-5-methyl-2-oxo-4-((S)-2,2,2-trifluoro-1-hydroxyethyl)oxazolidin-3-yl)benzonitrile]", "IC50": 13}, {"smiles": "CN1C[C@H]([C@@H](O)C(F)(F)F)N(c2ccc(C#N)c(C(F)(F)F)c2)C1=O", "note": "[Example 26, 4-((R)-5-((R)-2,2,2-trifluoro-1-hydroxyethyl)-3-methyl-2-oxoimidazolidin-1-yl)-2-(trifluoromethyl)benzonitrile]", "IC50": "> 1000"}, {"smiles": "Cc1c(N2C(=O)CC[C@@H]2[C@@H](O)C(F)(F)F)ccc(C#N)c1C(F)(F)F", "note": "[Example 4, 3-methyl-4-((R)-2-oxo-5-((R)-2,2,2-trifluoro-1-hydroxyethyl)pyrrolidin-1-yl)-2-(trifluoromethyl)benzonitrile]", "IC50": 120}, {"smiles": "Cc1c(N2C(=O)O[C@@H](C)[C@@H]2[C@H](O)C(F)(F)F)ccc(C#N)c1C(F)(F)F", "note": "[Example 23, 3-methyl-4-((4S,5S)-5-methyl-2-oxo-4-((S)-2,2,2-trifluoro-1-hydroxyethyl)oxazolidin-3-yl)-2-(trifluoromethyl)benzonitrile]", "IC50": 33}, {"smiles": "Cc1c(N2C(=O)O[C@H](C)[C@@H]2[C@H](O)C(F)(F)F)ccc(C#N)c1Cl", "note": "[Example 15, 2-chloro-3-methyl-4-((4S,5R)-5-methyl-2-oxo-4-((S)-2,2,2-trifluoro-1-hydroxyethyl)oxazolidin-3-yl)benzonitrile]", "IC50": 200}, {"smiles": "Cc1c(N2C(=O)OC[C@@H]2[C@H](O)C(F)(F)F)ccc(C#N)c1Cl", "note": "[Example 11, 2-chloro-3-methyl-4-((R)-2-oxo-4-((S)-2,2,2-trifluoro-1-hydroxyethyl)oxazolidin-3-yl)benzonitrile]", "IC50": 25}, {"smiles": "N#Cc1ccc(N2C(=O)CC[C@@H]2[C@H](O)C(F)(F)F)cc1C(F)(F)F", "note": "[Example 1, 4-((R)-2-oxo-5-((S)-2,2,2-trifluoro-1-hydroxyethyl)pyrrolidin-1-yl)-2-(trifluoromethyl)benzonitrile]", "IC50": 14}, {"smiles": "N#Cc1ccc(N2C(=O)OC[C@@H]2[C@@H](O)C(F)(F)F)cc1C(F)(F)F", "note": "[Example 8, 4-((R)-2-oxo-4-((R)-2,2,2-trifluoro-1-hydroxyethyl)oxazolidin-3-yl)-2-(trifluoromethyl)benzonitrile]", "IC50": "> 1000"}, {"smiles": "O=C1CC[C@H]([C@H](O)C(F)(F)F)N1c1ccc2nnsc2c1", "note": "[Example 5, (R)-1-(Benzo[d][1,2,3]thiadiazol-6-yl)-5-((S)-2,2,2-trifluoro-1-hydroxyethyl)pyrrolidin-2-one]", "IC50": 530}, {"smiles": "O=C1CC[C@H]([C@@H](O)C(F)(F)F)N1c1ccc2nnsc2c1", "note": "[Example 6, (R)-1-(Benzo[d][1,2,3]thiadiazol-6-yl)-5-((R)-2,2,2-trifluoro-1-hydroxyethyl)pyrrolidin-2-one]", "Binding IC50 (nM)": "No binding"}, {"smiles": "N#Cc1ccc(N2C(=O)OC[C@H]2[C@@H](O)C(F)(F)F)cc1Cl", "note": "[Example 10, 2-chloro-4-((S)-2-oxo-4-((R)-2,2,2-trifluoro-1-hydroxyethyl)oxazolidin-3-yl)benzonitrile]", "IC50": "> 1000"}, {"smiles": "Cc1c(N2C(=O)O[C@@H](C)[C@@H]2[C@@H](O)C(F)(F)F)ccc(C#N)c1Cl", "note": "[Example 18, 2-chloro-3-methyl-4-((4S,5S)-5-methyl-2-oxo-4-((R)-2,2,2-trifluoro-1-hydroxyethyl)oxazolidin-3-yl)benzonitrile]", "IC50": 700}, {"smiles": "N#Cc1ccc(N2C(=O)CC[C@@H]2[C@@H](O)C(F)(F)F)cc1C(F)(F)F", "note": "[Example 2, 4-((R)-2-oxo-5-((R)-2,2,2-trifluoro-1-hydroxyethyl)pyrrolidin-1-yl)-2-(trifluoromethyl)benzonitrile]", "IC50": 100}, {"smiles": "Cc1c(N2C(=O)O[C@H](C)[C@@H]2[C@@H](O)C(F)(F)F)ccc(C#N)c1Cl", "note": "[Example 16, 2-chloro-3-methyl-4-((4S,5R)-5-methyl-2-oxo-4-((R)-2,2,2-trifluoro-1-hydroxyethyl)oxazolidin-3-yl)benzonitrile]", "IC50": "> 1000"}, {"smiles": "Cc1c(N2C(=O)OC[C@@H]2[C@@H](O)C(F)(F)F)ccc(C#N)c1Cl", "note": "[Example 12, 2-chloro-3-methyl-4-((R)-2-oxo-4-((R)-2,2,2-trifluoro-1-hydroxyethyl)oxazolidin-3-yl)benzonitrile]", "IC50": 933}]}, {"target": "androgen receptor (Rattus norvegicus (Rat), UniProt P15207)", "assay": "androgen receptor binding assay (fluorescence polarization, Invitrogen)", "settings": "AR-Fluormone complex, 4 h at room temperature; Table 2", "protocol": "as §1", "units": {"IC50": "nM"}, "values": [{"smiles": "C[C@H]1OC(=O)N(c2ccc(C#N)c(C(F)(F)F)c2)[C@H]1[C@H](O)C(F)(F)F", "note": "[Example 36, 4-((4S,5R)-4-((S)-2,2,2-trifluoro-1-hydroxyethyl)-5-methyl-2-oxooxazolidin-3-yl)-2-(trifluoromethyl)benzonitrile]", "IC50": "> 1000"}, {"smiles": "O=C1CC[C@H]([C@H](O)C(F)(F)F)N1c1ccc(Cl)c(Cl)c1", "note": "[Example 27, (R)-1-(3,4-dichlorophenyl)-5-((S)-2,2,2-trifluoro-1-hydroxyethyl)pyrrolidin-2-one]", "IC50": 62}, {"smiles": "N#Cc1ccc(N2C(=O)CC[C@@H]2[C@@H](O)C(F)(F)F)cc1Cl", "note": "[Example 33, 2-chloro-4-((R)-2-((R)-2,2,2-trifluoro-1-hydroxyethyl)-5-oxopyrrolidin-1-yl)benzonitrile]", "IC50": 65}, {"smiles": "O=C1CC[C@H]([C@@H](O)C(F)(F)F)N1c1ccc(Cl)c(Cl)c1", "note": "[Example 28, (R)-1-(3,4-dichlorophenyl)-5-((R)-2,2,2-trifluoro-1-hydroxyethyl)pyrrolidin-2-one]", "IC50": "> 1000"}, {"smiles": "Cc1c(N2C(=O)O[C@H](C)[C@@H]2[C@H](O)C(F)(F)F)ccc(C#N)c1C(F)(F)F", "note": "[Example 34, 4-((4S,5R)-4-((S)-2,2,2-trifluoro-1-hydroxyethyl)-5-methyl-2-oxooxazolidin-3-yl)-2-(trifluoromethyl)-3-methylbenzonitrile]", "IC50": "> 1000"}, {"smiles": "C[C@H]1OC(=O)N(c2ccc(C#N)c(C(F)(F)F)c2)[C@H]1[C@@H](O)C(F)(F)F", "note": "[Example 37, 4-((4S,5R)-4-((R)-2,2,2-trifluoro-1-hydroxyethyl)-5-methyl-2-oxooxazolidin-3-yl)-2-(trifluoromethyl)benzonitrile]", "IC50": "> 1000"}, {"smiles": "C[C@H]1OC(=O)N(c2ccc(C#N)c(Cl)c2)[C@H]1[C@H](O)C(F)(F)F", "note": "[Example 38, 2-chloro-4-((4S,5R)-4-((S)-2,2,2-trifluoro-1-hydroxyethyl)-5-methyl-2-oxooxazolidin-3-yl)benzonitrile]", "IC50": 150}, {"smiles": "Cc1c(N2C(=O)O[C@H](C)[C@@H]2[C@@H](O)C(F)(F)F)ccc(C#N)c1C(F)(F)F", "note": "[Example 35, 4-((4S,5R)-4-((R)-2,2,2-trifluoro-1-hydroxyethyl)-5-methyl-2-oxooxazolidin-3-yl)-2-(trifluoromethyl)-3-methylbenzonitrile]", "IC50": "> 10000"}, {"smiles": "C[C@H]1OC(=O)N(c2ccc(C#N)c(Cl)c2)[C@H]1[C@@H](O)C(F)(F)F", "note": "[Example 39, 2-chloro-4-((4S,5R)-4-((R)-2,2,2-trifluoro-1-hydroxyethyl)-5-methyl-2-oxooxazolidin-3-yl)benzonitrile]", "IC50": 550}]}, {"test_system": "immature, castrated rat (levator ani and bulba cavernous, LABC)", "assay": "In vivo rat Herschberger assay, LABC weight", "set-up": "key: no = no activity observed at highest dose tested.; yes = increased LABC weight relative to castrated vehicle control", "settings": "once daily oral gavage for 4 days, Table 2", "source_text": "(§2) In Vivo Rat Model of Androgen and Anabolic Activity-Rat Herschberger Assay\n(§3) The following is a typical procedure of the in vivo evaluation of the selective androgens of this invention. In particular, this assay looks primarily at the ability of the selective androgens of this invention to increase muscle size in an immature, castrated rat. In addition, androgenic effects are looked at primarily by weighing the prostate and seminal vesicles. Selective compounds will show a greater increase in the levator ani relative to the prostate and seminal vesicles when compared to testosterone treated, castrated animals or to intact animals that have not been treated. Immature Sprague Dawley male rats were obtained Charles River Laboratories (Stoneridge, N.Y.). All animals were maintained in a temperature and humidity controlled room with a 12 hr light: 12 hr dark cycle, with ad lib access to food (TD 291615, Teklad, Madison, Wis.) and water. Rats were anesthetized and orchidectomized (GDX) or sham surgery (SHAM) was performed. After a 7-day recovery period, the animals were randomized according to weight and assigned to treatment groups (n=5), SHAM, OVX+vehicle, OVX+Cpd treated. Testosterone propionate (TP 1 mg/kg in 5% DMSO/95% corn oil) was administered by once daily subcutaneous injections, while the compounds of the invention are dosed in vehicle (0.5% carboxymethylcellulose) was administered by once daily oral gavage. The rats were then dosed once daily for 4 days. All animals were euthanized via carbon dioxide inhalation 24 hs after the last dose. The prostate, seminal vesicle and levator ani and bulba cavernous (LABC) tissues were removed, weighed and recorded. An increase in mean LABC indicates anabolic activity for that particular compound with regard to oral dosing typically at a maximum tested dose of between 1 mg/kg and 30 mg/kg—see Table 1.", "values": [{"smiles": "O=C1CC[C@H]([C@H](O)C(F)(F)F)N1c1ccc(Cl)c(Cl)c1", "note": "[Example 27, (R)-1-(3,4-dichlorophenyl)-5-((S)-2,2,2-trifluoro-1-hydroxyethyl)pyrrolidin-2-one]", "Oral activity in Herscheberger assay on LABC weight": "yes"}]}, {"test_system": "immature, castrated rat (levator ani and bulba cavernous, LABC)", "assay": "In vivo rat Herschberger assay, LABC weight", "set-up": "key: no = no activity observed at highest dose tested.; yes = increased LABC weight relative to castrated vehicle control", "settings": "once daily oral gavage for 4 days, maximum tested dose between 1 mg/kg and 30 mg/kg, Table 1", "source_text": "as §2, §3", "values": [{"smiles": "Cc1c(N2C(=O)O[C@@H](C)[C@@H]2[C@H](O)C(F)(F)F)ccc(C#N)c1Cl", "note": "[Example 17, 2-chloro-3-methyl-4-((4S,5S)-5-methyl-2-oxo-4-((S)-2,2,2-trifluoro-1-hydroxyethyl)oxazolidin-3-yl)benzonitrile]", "Oral activity in Herscheberger assay on LABC weight": "yes"}, {"smiles": "CN1C[C@H]([C@@H](O)C(F)(F)F)N(c2ccc(C#N)c(C(F)(F)F)c2)C1=O", "note": "[Example 26, 4-((R)-5-((R)-2,2,2-trifluoro-1-hydroxyethyl)-3-methyl-2-oxoimidazolidin-1-yl)-2-(trifluoromethyl)benzonitrile]", "Oral activity in Herscheberger assay on LABC weight": "no"}, {"smiles": "Cc1c(N2C(=O)OC[C@@H]2[C@H](O)C(F)(F)F)ccc(C#N)c1Cl", "note": "[Example 11, 2-chloro-3-methyl-4-((R)-2-oxo-4-((S)-2,2,2-trifluoro-1-hydroxyethyl)oxazolidin-3-yl)benzonitrile]", "Oral activity in Herscheberger assay on LABC weight": "yes"}, {"smiles": "N#Cc1ccc(N2C(=O)CC[C@@H]2[C@H](O)C(F)(F)F)cc1C(F)(F)F", "note": "[Example 1, 4-((R)-2-oxo-5-((S)-2,2,2-trifluoro-1-hydroxyethyl)pyrrolidin-1-yl)-2-(trifluoromethyl)benzonitrile]", "Oral activity in Herscheberger assay on LABC weight": "yes"}, {"smiles": "C[C@@H]1OC(=O)N(c2ccc(C#N)c(C(F)(F)F)c2)[C@H]1[C@@H](O)C(F)(F)F", "note": "[Example 20, 4-((4S,5S)-5-methyl-2-oxo-4-((R)-2,2,2-trifluoro-1-hydroxyethyl)oxazolidin-3-yl)-2-(trifluoromethyl)benzonitrile]", "Oral activity in Herscheberger assay on LABC weight": "yes"}, {"smiles": "C[C@@H]1OC(=O)N(c2ccc(C#N)c(C(F)(F)F)c2)[C@H]1[C@H](O)C(F)(F)F", "note": "[Example 19, 4-((4S,5S)-5-methyl-2-oxo-4-((S)-2,2,2-trifluoro-1-hydroxyethyl)oxazolidin-3-yl)-2-(trifluoromethyl)benzonitrile]", "Oral activity in Herscheberger assay on LABC weight": "yes"}]}]}
